Measured values taken from patent US9993480B2, “mTOR/JAK inhibitor combination therapy” (NOVARTIS PHARMA AG, priority 2011, dated 2018).
Several values for one entry are separate records, joined by “and”; a condition that tells them apart may be missing. Equal values may be shown once. Entries after “also recorded” stand apart in the source; their conditions may differ. Read-outs that look alike come from different tables or passages of the source.

Tests used:
[1] = system: JAK2, STAT5, and 4EBP1 in SET2 cells; assay: Western blot of mTOR and JAK/STAT signaling; format: cell-based, human
Experimental: (§1) Cells were resuspended in RIPA lysis buffer (50 mM pH 7.4 Tris-HCl, 150 mM NaCl, 1% NP-40, 1 mMEDTA) containing a proteinase inhibitor cocktail (Halt Protease Inhibitor Cocktail Kit, PIERCE, Rockford, Ill., US) and subjected to sodium dodecyl sulphate polyacrylamide gel electrophoresis separation and western blotting onto Immunoblot PVDF membrane (BioRad, Hercules, Calif., US), according to standard protocols.
SET2 cells were incubated for 24 h with increasing concentrations of the drugs, and the level of total and phosphorylated JAK2, STAT5, and 4EBP1 was analyzed by western blot. Tubulin was used for loading normalization.

SET2 cells [2] = assay: Apoptosis by Annexin V flow cytometry; format: cell-based, human; details: SET2 cells exposed for 48 h
From the text: Results are expressed ad percent viable cells compared to control wells containing vehicle (DMSO) only. The fraction of necrotic cells was identified as the double-positive Annexin V/propidium iodide cells.

SET2 cells [3] = assay: Clonogenic assay in agar
K562 cells [4] = assay: Clonogenic assay in agar; details: Homo sapiens, K562, 168 h, read-out: IC50, clonogenic assay
[5] = system: Peripheral Blood mononuclear cells from PV patients; assay: EEC colony formation assay; format: cell-based; details: Homo sapiens
HEL cells [6] = assay: Clonogenic assay in agar; details: Homo sapiens, 168 h, read-out: IC50, clonogenic assay
SET2 cells [7] = assay: Proliferation inhibition assay (WST-1); format: cell-based, human
From the text: (§2) The HEL, SET2 and K562 human cell lines were purchased from the German Collection of Microorganisms and Cell Cultures (DSMZ, Braunschweig, Germany). Murine BaF/3 and BaF/3-EPOR cells expressing JAK2 wild-type (wt) or JAK2V617F were donated by R. Skoda (Basel, Switzerland).

K562 cells [8] = assay: Proliferation inhibition assay (WST-1); format: cell-based, human
From the text: as §2

HEL cells [9] = assay: Proliferation inhibition assay (WST-1); format: cell-based, human
From the text: as §2

[10] = system: 4E-BP1 and STAT5 in Ba/F3 and Ba/F3-EPOR cells; assay: Western blot of 4E-BP1 and STAT5 phosphorylation; format: cell-based, murine
Experimental: as §1
To better characterize the correlation between JAK2V617F mutation and mTOR activation, as well as the consequences of mTOR inhibition on STAT5 phosphorylation, BA/F3 and Ba/F3-EPOR cells were used. First, it was observed that 4E-BP1 was minimally phosphorylated in JAK2 wt Ba/F3 and Ba/F3-EPOR cells deprived of cytokines, while it was hyper-phosphorylated in V617F cells, supporting previous data on Akt constitutive activation in JAK2V617F-mutated cells. […] STAT5 phosphorylation was greater in V617F cells compared to IL-3- or EPO-deprived JAK2 wt Ba/F3 or Ba/F3-EPOR cells, and it did increase substantially after cytokine exposure.

[11] = system: Ba/F3 epoR JAK2 V617F cells; assay: Clonogenic assay in agar; details: Mus musculus
[12] = system: Ba/F3 epoR JAK2 wild-type cells; assay: Clonogenic assay in agar; details: Mus musculus, BaF3, 168 h, read-out: IC50, clonogenic assay
Ba/F3 JAK2 V617F cells = assay: Clonogenic assay in agar; details: Mus musculus, BaF3, 168 h, read-out: IC50, clonogenic assay
[13] = system: CD34+ cells from MPN patients; assay: Clonogenic assay with JAK2V617F single-colony genotyping; format: cell-based, human; details: for % decrease V617F: RAD001 50 nM vs without
Experimental: Samples of peripheral blood (PB) or bone marrow (BM) were obtained from patients diagnosed with PV or PMF (2008 WHO criteria) under a protocol approved by Institutional Review Board of Azienda Ospedaliera-Universitaria Careggi and after obtaining an informed consent. Healthy donors of hematopoietic stem cells provided informed consent to donate excess CD34^+ cells. Research was carried out according to the principles of Declaration of Helsinki. CD34^+ cells were immunomagnetically selected as described. The JAK2V617F mutational status was determined by a quantitative real-time PCR assay in granulocytes.
BM mononuclear cells from MPN patients or control subjects were plated at 1×10^5/mL in methylcellulose (MethoCult; StemCell Technologies, Vancouver, Canada) supplemented with SCF 50 ng/mL, IL-3 10 ng/mL, IL-6 10 ng/mL, GM-CSF 10 ng/mL, G-CSF 10 ng/mL and EPO 3 U/mL for the growth of BFU-E and CFU-GM. EEC assay was performed by plating 2.5×10^5/mL PB mononuclear cells from PV patients in methylcellulose containing leukocyte-conditioned medium without EPO (StemCell Technol., cat. No. #04531). For the growth of CFU-Mk, 5×10^4/mL CD34^+ cells were plated in a 24-well plate in Megacult Collagen and medium with lipids (StemCell Technol.) supplemented with Thrombopoietin 50 ng/mL, IL-3 10 ng/mL, IL-6 10 ng/mL. Colonies were enumerated on day 14 according to standard criteria.
For JAK2V617F single-colony genotyping an allele-specific PCR assay was used. Well-separated colonies (at least 40 colonies per point) were individually plucked off the semisolid medium in 5 μL DNase/RNase-free water, lysed at 95° C. for 5 minutes, and subjected to PCR amplification and gel electrophoresis.

[14] = system: BaF/3-EPOR cells expressing JAK2 wild-type; assay: Proliferation inhibition assay (WST-1); format: cell-based, murine; details: Mus musculus; BaF/3-EPOR WT; EPO in culture medium
From the text: as §2

[15] = system: BaF/3 cells expressing JAK2 wild-type; assay: Proliferation inhibition assay (WST-1); format: cell-based, murine; details: Mus musculus, BaF3; BaF/3 WT; mIL-3 in culture medium
From the text: as §2

[16] = system: BaF/3 cells expressing JAK2V617F; assay: Proliferation inhibition assay (WST-1); format: cell-based, murine; details: Mus musculus, BaF3; BaF/3 V617F, absence of IL-3
From the text: as §2

[17] = system: BaF/3-EPOR cells expressing JAK2V617F; assay: Proliferation inhibition assay (WST-1); format: cell-based, murine
From the text: as §2

SET2 cells [18] = assay: Cell cycle distribution analysis by flow cytometry; format: cell-based, human; details: at IC50 concentration
HEL cells [19] = assay: Cell cycle distribution analysis by flow cytometry; format: cell-based, human; details: at IC50 concentration
UKE-1 cells = assay: Clonogenic assay; format: cell-based; details: compared with K562
[20] = Homo sapiens, SET-2, read-out: IC50 of Cmp A in drug combination with PP242
[21] = Homo sapiens, SET-2, read-out: IC50 of Cmp A in drug combination with RAD001
[22] = SET2, 24 h, increasing concentrations
[23] = Homo sapiens, SET-2, SET2, individual drug, read-out: IC50, proliferation inhibition

N#CC[C@H](C1CCCC1)n1cc(-c2ncnc3[nH]ccc23)cn1 [Compound A, (3R)-3-cyclopentyl-3-[4-(7H-pyrrolo[2,3-d]pyrimidin-4-yl)-1H-pyrazol-1-yl]propanenitrile]
phosphorylated JAK2 [1]: markedly and dose-dependently reduced phosphorylation | phosphorylation of 4E-BP1 [1]: unaffected | phosphorylation of STAT5 [1]: markedly and dose-dependently reduced phosphorylation | cell apoptosis (Annexin V-positive cells) (SET2 cells [2]): dose-dependently potent inducers of cell apoptosis; also recorded: potently induced cell apoptosis | IC50 (SET2 cells [3]; [20]): 0.0076 µM | IC50 (SET2 cells [3]; [21]): 0.004 µM | IC50 (K562 cells [4]): > 15 µM | IC50 ([5]; PBMC, read-out: IC50, clonogenic potential (EEC)): 0.0018 ± 0.001 µM | IC50 ([5]; PBMC, read-out: IC50 of Cmp A in drug combination with PP242): 0.0001 µM | IC50 ([5]; PBMC, read-out: IC50 of Cmp A in drug combination with RAD001): 0.0002 µM | IC50 (HEL cells [6]): 0.374 ± 0.177 µM | IC50 (SET2 cells [7]; [20]): 0.047 µM | IC50 (SET2 cells [7]; [21]): 0.029 µM

NC(=O)NO [HuOH, hydroxyurea]
phosphorylation of 4E-BP1 [1, 22]: did not affect | phosphorylation of STAT5 [1, 22]: did not affect | cell apoptosis (Annexin V-positive cells) (SET2 cells [2]): induced dose-dependent cell apoptosis | IC50 (K562 cells [8]): 4910 µM | IC50 (SET2 cells [7]; SET2, read-out: IC50, proliferation inhibition): 330 µM | IC50 (HEL cells [9]): 410 µM

Cc1[nH]c2ccccc2c1CCNCc1ccc(/C=C/C(=O)NO)cc1 [Panobinostat]
IC50 (K562 cells [8]; Homo sapiens): 0.031 ± 0.008 µM | IC50 (SET2 cells [7]; [23]): 0.007 ± 0.002 µM | IC50 (HEL cells [9]; Homo sapiens): 0.008 ± 0.003 µM

CO[C@H]1C[C@@H]2CC[C@@H](C)[C@@](O)(O2)C(=O)C(=O)N2CCCC[C@H]2C(=O)O[C@H]([C@H](C)C[C@@H]2CC[C@@H](OCCO)[C@H](OC)C2)CC(=O)[C@H](C)/C=C(\C)[C@@H](O)[C@@H](OC)C(=O)[C@H](C)C[C@H](C)/C=C/C=C/C=C/1C [RAD001, Everolimus]
phosphorylated JAK2 [1, 22]: unaffected | phosphorylation of 4E-BP1 [1, 22]: dose-dependently reduced phosphorylation; also recorded: inhibited the phosphorylation | phosphorylation of STAT5 [1, 22]: dose-dependently reduced phosphorylation; also recorded: appreciable decrease of STAT5 phosphorylation | total JAK2 [1, 22]: unaffected | cell apoptosis (Annexin V-positive cells) (SET2 cells [2]): largely ineffective in inducing cell death; also recorded: did not induce cell death | IC50 (SET2 cells [3]; Homo sapiens, SET-2, read-out: IC50 of the mTOR inhibitor in drug combination with Cmp A, SET2, clonogenic agar assay, median of at least 3 experiments): 0.007 µM | IC50 (SET2 cells [3]; read-out: IC50, clonogenic assay, SET2, colonies day 7, individual drug): 0.13 µM and 0.044 µM | STAT5 phosphorylation ([10]; evident at 60 min, up to 24 h, not shown): significantly downregulated | 4E-BP1 phosphorylation ([10]; persisted up to at least 24 h, data not shown): marked inhibition | IC50 ([11]; BaF3, 168 h, read-out: IC50, clonogenic assay): 0.004 ± 0.002 µM | IC50 ([11]; BaF3, read-out: IC50 of the mTOR inhibitor in drug combination with Cmp A): 0.0011 µM | IC50 [12]: 0.022 ± 0.01 µM | IC50 (K562 cells [4]): 10 µM | IC50 (Ba/F3 JAK2 V617F cells): 0.006 ± 0.002 µM | JAK2 genotype V617F colonies (%) ([13]; Pat. # 1, RAD001 50 nM): 6% | JAK2 genotype Wild-type colonies (%) ([13]; Pat. # 1, RAD001 50 nM): 94% | % decrease V617F ([13]; Pat. # 1): 70% | JAK2 genotype V617F colonies (%) ([13]; Pat. # 2, RAD001 50 nM): 40% | JAK2 genotype Wild-type colonies (%) ([13]; Pat. # 2, RAD001 50 nM): 60% | % decrease V617F ([13]; Pat. # 2): 15% | JAK2 genotype V617F colonies (%) ([13]; Pat. # 3, RAD001 50 nM): 57% | JAK2 genotype Wild-type colonies (%) ([13]; Pat. # 3, RAD001 50 nM): 43% | % decrease V617F ([13]; Pat. # 3): 21% | JAK2 genotype V617F colonies (%) ([13]; Pat. # 4, RAD001 50 nM): 40% | JAK2 genotype Wild-type colonies (%) ([13]; Pat. # 4, RAD001 50 nM): 58% | % decrease V617F ([13]; Pat. # 4): 17% | JAK2 genotype V617F colonies (%) ([13]; Pat. # 5, RAD001 50 nM): 9% | JAK2 genotype Wild-type colonies (%) ([13]; Pat. # 5, RAD001 50 nM): 91% | % decrease V617F ([13]; Pat. # 5): 72% | % decrease V617F, Mean ± SD ([13]; mean of 5 patients, RAD001 50 nM): 39% and 39 ± 29% | IC50 [14]: > 10 µM | IC50 [15]: 2.6 µM | IC50 [16]: 0.01 ± 0.004 µM | IC50 ([17]; BaF/3-EPOR V617F + EPO, read-out: IC50, proliferation inhibition): 1.23 µM | IC50 ([17]; BaF/3-EPOR V617F, absence of EPO, individual drug, read-out: IC50, proliferation inhibition): 0.651 ± 0.05 µM | IC50 ([17]; Mus musculus, BaF/3-EPOR V617F + EPO, read-out: IC50, proliferation inhibition): 1.21 µM | IC50 ([17]; Mus musculus, JAK2V617F Ba/F3-EPOR, proliferation, median of at least 3 experiments, read-out: IC50 of the mTOR inhibitor in drug combination with Cmp A): 0.363 µM | IC50 ([5]; PBMC, read-out: IC50 of the mTOR inhibitor in drug combination with Cmp A): 0.0019 µM | IC50 ([5]; PBMC from PV patients, individual drug, read-out: IC50, clonogenic potential (EEC)): 0.015 ± 0.01 µM | cell cycle effect (SET2 cells [18]): cell cycle arrest of SET2 and HEL cells in the G0/G1 phase | cell cycle effect (HEL cells [19]): cell cycle arrest of SET2 and HEL cells in the G0/G1 phase | IC50 (HEL cells [6]): 0.085 ± 0.03 µM | clonogenic potential (UKE-1 cells): impaired the clonogenic potential | IC50 (K562 cells [8]; Homo sapiens): 16 µM | IC50 (SET2 cells [7]; Homo sapiens, SET-2, read-out: IC50 of the mTOR inhibitor in drug combination with Cmp A): 0.0031 µM | IC50 (SET2 cells [7]; [23]): 17 µM | IC50 (HEL cells [9]; Homo sapiens): 14 µM
